The results in this text go back to patent publication US5624923A, “Tricyclic diazepine vasopressin antagonists and oxytocin antagonists” (priority 1995, dated 1997).

Test [1] addresses T1, V1 Receptor Subtype in Human Platelet (Homo sapiens, UniProt P37288).
T1 construct: tissue Hudson Valley Blood Services, Westchester Medical Center, Valhalla, N.Y; host or cells: human platelets (frozen platelet rich plasma)
The experiment in a line: Binding to Vasopressin V1 receptor subtype in Human Platelet Membranes. The settings on record: for IC50: human platelet membranes; for inhibition at 1 µM: 1.5 h, human platelet. The protocol: Radioligand Binding Experiments with Human Platelet Membranes (a) Platelet Membrane Preparation: Frozen platelet rich plasma (PRP), (Platelet Source: Hudson Valley Blood Services, Westchester Medical Center, Valhalla, N.Y.) are thawed to room temperature. The tubes containing the PRP are centrifuged at 16,000×g for 10 min. at 4° C. and the supernatant fluid discarded. […] The suspension is recentrifuged at 16,000× g for 10 min. This washing step is repeated one more time. The wash discarded and the lysed pellets homogenized in low ionic strength buffer of Tris.HCl, 5.0 mM, pH 7.5 containing 5.0 mM EDTA. The homogenate is centrifuged at 39,000× g for 10 min. The resulting pellet is resuspended in Tris. […] The final pellet is resuspended in 50.0 mM Tris. HCl buffer pH 7.4 containing 120 mM NaCl and 5.0 mM KCl to give 1.0-2.0 mg protein per ml of suspension. […] Platelet Membranes […] Then add 20 μl of [^3 H]Ligand (Manning or […] Vasopressin), to give final concentrations ranging from 0.01 to 10.0 nM. Initiate the binding by adding 80.0 μl of platelet suspension (approx. 100 μg protein). Mix all reagents by pipetting the mixture up and down a few times. Non specific binding is measured in the presence of 1.0 μM of unlabeled ligand (Manning or […] Vasopressin). Let the mixture stand undisturbed at room temperature for ninety (90) min. Upon this time, rapidly filter off the incubate under vacuum suction over GF/B filters, using a Brandel Harvester. Determine the radioactivity caught on the filter disks by the addition of liquid scintillant and counting in a liquid scintillator.

The target in test [2] is T2, Human V2 Vasopressin Receptor (Homo sapiens, UniProt P30518).
T2 construct: expressed in transfected cells; host or cells: mouse fibroblast cell line LV-2
The test is described as follows: Binding to Membranes of Mouse Fibroblast Cell Line (LV-2) Transfected with the cDNA Expressing the Human V2 Vasopressin Receptor. The conditions noted are these: human V2; for IC50: LV-2 cell membranes, read-out: V2 IC50 (**). As for the experimental part: Binding to Membranes of Mouse Fibroblast Cell Line (LV-2) Transfected with the cDNA Expressing the Human V2 Vasopressin Receptor
Flasks of 175 ml capacity, containing attached cells grown to confluence, are cleared of culture medium by aspiration. The flasks containing the attached cells are rinsed with 2×5 ml of phosphate buffered saline (PBS) and the liquid aspirated off each time. Finally, 5 ml of an enzyme free dissociation Hank's based solution (Specialty Media, Inc., Lafayette, N.J.) is added and the flasks are left undisturbed for 2 min. The content of all flasks is. poured into a centrifuge tube and the cells pelleted at 300× g for 15 min. The Hank's based solution is aspirated off and the cells homogenized with a polytron at setting #6 for 10 sec in 10.0 mM Tris.HCl buffer, pH 7.4 containing 0.25M sucrose and 1.0 mM EDTA. The homogenate is centrifuged at 1500× g for 10 min to remove ghost membranes. The supernatant fluid is centrifuged at 100,000× g for 60 min. to pellet the receptor protein. Upon completion, the pellet is resuspended in a small volume of 50.0 mM Tris. HCl buffer, pH 7.4. The protein content is determined by the Lowry method and the receptor membranes are suspended in 50.0 mM Tris.HCl buffer containing 0.1 mM phenylmethylsulfonylfluoride (PMSF) and 0.2% bovine serum albumin (BSA) to give 2.5 mg receptor protein per ml of suspension.
Arginine^8, vasopressin (S.A. 75.0 Ci/mmole) at 0.8 nM and the reaction initiated by the addition of 80.0 μl of tissue membranes (200.0 μg tissue protein). The plates are left undisturbed on the bench top for 120 min to reach equilibrium. Non specific binding is assessed in the presence of 1.0 μM of unlabeled ligand, added in 20 μl volume. For test compounds, these are solubilized in 50% dimethylsulfoxide (DMSO) and added in 20.0 μl volume to a final incubation volume of 200 μl. Upon completion of binding, the content of each well is filtered off, using a Brandel® cell Harvester (Gaithersburg, Md.). The radioactivity trapped on the filter disk by the ligand-receptor complex is assessed by liquid scintillation counting in a Packard LS Counter, with an efficiency of 65% for tritium. The data are analyzed for IC50 values by the LUNDON-2 program for competition (LUNDON SOFTWARE, Ohio).

Another test deals with Vasopressin V2. The experiment in a line: Vasopressin V2 Antagonist Activity in Conscious Hydrated Rats. It is filed as in vivo, rat. The settings on record: 10 mg/kg orally, AVP 0.4 μg/kg i.p. The essentials:
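Four-hour urine output, osmolality and electrolytes (Na+, K+, Cl−) recorded in water-loaded rats (30 mL/kg deionized water orally) given AVP i.p. at 0.4 μg/kg. Test compounds were given orally at 0.1–100 mg/kg 1 h before AVP; 2–4 rats per compound.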

T1 sequence (P37288 whole entry): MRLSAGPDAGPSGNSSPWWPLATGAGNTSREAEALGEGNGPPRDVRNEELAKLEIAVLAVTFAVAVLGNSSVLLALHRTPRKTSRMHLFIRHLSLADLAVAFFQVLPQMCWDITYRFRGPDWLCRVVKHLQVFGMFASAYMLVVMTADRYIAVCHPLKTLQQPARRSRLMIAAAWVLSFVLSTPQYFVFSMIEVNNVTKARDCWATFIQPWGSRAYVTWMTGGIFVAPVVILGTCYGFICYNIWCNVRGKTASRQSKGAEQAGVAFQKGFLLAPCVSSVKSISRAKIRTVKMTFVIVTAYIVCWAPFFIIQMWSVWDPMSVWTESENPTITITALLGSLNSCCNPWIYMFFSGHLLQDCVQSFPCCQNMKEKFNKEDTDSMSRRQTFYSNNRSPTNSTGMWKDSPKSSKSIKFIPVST
T2 sequence (P30518 whole entry): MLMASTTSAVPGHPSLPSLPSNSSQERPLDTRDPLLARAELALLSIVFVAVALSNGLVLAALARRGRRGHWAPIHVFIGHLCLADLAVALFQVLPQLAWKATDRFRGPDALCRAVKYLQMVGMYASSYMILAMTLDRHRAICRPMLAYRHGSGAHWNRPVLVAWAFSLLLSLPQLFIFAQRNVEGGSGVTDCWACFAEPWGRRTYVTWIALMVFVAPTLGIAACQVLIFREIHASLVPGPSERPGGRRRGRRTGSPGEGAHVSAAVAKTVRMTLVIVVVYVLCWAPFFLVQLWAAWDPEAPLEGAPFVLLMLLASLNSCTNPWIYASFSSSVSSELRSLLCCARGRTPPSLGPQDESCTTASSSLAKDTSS

Broadly, the IC50 is the concentration at which inhibition is half-maximal. For the molecule `Cc1ccc(F)cc1C(=O)Nc1ccc(C(=O)N2Cc3ccnn3Cc3ccccc32)c(Cl)c1` [Example 518, N-[4-(4H-Pyrazolo[5,1-c][1,4]benzodiazepin-5(10H)-ylcarbonyl)-3-chlorophenyl]-5-fluoro-2-methylbenzamide], the IC50 in test [1] was determined as 220 nM. In test [2], the IC50 worked out at 1.7 nM. Further, in the test with Vasopressin V2, the Osmolality is 363 mOsm/kg and the “Urine Volume” value is recorded as 17.5 ml/4 hrs.

Regarding `O=C(Nc1ccc(C(=O)N2Cc3cccn3Cc3ccccc32)c(Cl)c1)c1ccccc1F` [Example 523, N-[4-(5H-pyrrolo[2,1-c][1,4]benzodiazepin-10(11H)-ylcarbonyl)-3-chlorophenyl]-2-fluorobenzamide], the half-maximal inhibitory concentration (IC50) in test [1] was 110 nM. Besides, the IC50 in test [2] came to 2.8 nM. Moreover, in the test with Vasopressin V2, the Osmolality is recorded as 1218 mOsm/kg and the “Urine Volume” value is 5 ml/4 hrs.

As for `Cc1ccc(F)cc1C(=O)Nc1ccc(C(=O)N2Cc3ccc(CN(C)C)n3Cc3ccccc32)c(Cl)c1` [Example 668, N-[4-[[3-[(dimethylamino)methyl]-5H-pyrrolo[2,1-c][1,4]benzodiazepin-10(11H)-yl]carbonyl]-3-chlorophenyl]-5-fluoro-2-methylbenzamide], in test [1], the IC50 is 170 nM. Besides, the IC50 in test [2] stood at 29 nM. Further, in the test on Vasopressin V2, the Osmolality worked out at 378 mOsm/kg and the “Urine Volume” value is on record as 20.7 ml/4 hrs.

In the case of `Cc1ccccc1C(=O)Nc1ccc(C(=O)N2Cc3cccn3Cc3ccccc32)c(C)c1` [Example 691, N-[4-(5H-pyrrolo[2,1-c][1,4]benzodiazepin-10(11H)-ylcarbonyl)-3-methylphenyl]-2-methylbenzamide], the results for the IC50 in test [1] and in test [2] were 72 nM and 2.9 nM, respectively.

`O=C(Nc1ccc(C(=O)N2Cc3cccn3Cc3ccccc32)cc1)c1ccc(F)cc1Cl` [Example 692, N-[4-(5H-pyrrolo[2,1-c][1,4]benzodiazepin-10(11H)-ylcarbonyl)phenyl]-2-chloro-4-fluorobenzamide]: the IC50 was 7 nM in test [1] and 4 nM in test [2].

In the case of `O=C(Nc1ccc(C(=O)N2Cc3cccn3Cc3ccccc32)cc1)c1ccc(F)cc1C(F)(F)F` [Example 693, N-[4-(5H-pyrrolo[2,1-c][1,4]benzodiazepin-10(11H)-ylcarbonyl)phenyl]-2-(trifluoromethyl)-4-fluorobenzamide], the IC50 in test [1] was determined as 21 nM; in test [2], 5 nM.

For the molecule `COc1cc(NC(=O)c2cc(F)ccc2C)ccc1C(=O)N1Cc2cccn2Cc2ccccc21` [Example 695], the IC50 in test [1] turned out to be 15 nM; in test [2], 1.8 nM.

Consider `O=C(Nc1ccc(C(=O)N2Cc3cccn3Cc3ccccc32)c(Cl)c1)c1ccc(C(F)(F)F)cc1F` [Example 696, N-[4-(5H-pyrrolo[2,1-c][1,4]benzodiazepin-10(11H)-ylcarbonyl)-3-chloro-phenyl]-2-fluoro-4-(trifluoromethyl)benzamide], for which the IC50 in test [1] came out at 12400 nM; in test [2], 65 nM.

Regarding `Cc1ccccc1CC(=O)Nc1ccc(C(=O)N2Cc3cccn3Cc3ccccc32)c(Cl)c1` [Example 697, N-[4-(5H-pyrrolo[2,1-c][1,4]benzodiazepin-10(11H)-ylcarbonyl)-3-chloro-phenyl]-2-methylbenzeneacetamide], the IC50 in test [1] worked out at 620 nM; in test [2] it was 3 nM.

In the case of `O=C(Nc1ccc(C(=O)N2Cc3cccn3Cc3ccccc32)c(Cl)c1)c1c(F)cccc1C(F)(F)F` [Example 698, N-[4-(5H-pyrrolo[2,1-c][1,4]benzodiazepin-10(11H)-ylcarbonyl)-3-chloro-phenyl]-2-fluoro-6-(trifluoromethyl)benzamide], the IC50 was 1300 nM in test [1] and 13 nM in test [2].

As a reminder, the inhibition is how much of the control response was suppressed. High values mean a strong effect, low ones a weak effect. The molecule `CSc1ccc(Cl)c(C(=O)Nc2ccc(C(=O)N3Cc4cccn4Cc4ccccc43)c(Cl)c2)c1` [Example 700, N-[4-(5H-pyrrolo[2,1-c][1,4]benzodiazepin-10(11H)-ylcarbonyl)-3-chloro-phenyl]-2-chloro-5-(methylthio)benzamide] came in with an inhibition at 1 µM in test [1] of 77%. The inhibition at 10 µM in test [2] (10 μM) was determined as 100%.

`COc1ccc(C(=O)Nc2ccc(C(=O)N3Cc4cccn4Cc4ccccc43)c(Cl)c2)c(Cl)c1OC` [Example 702, N-[4-(5H-pyrrolo[2,1-c][1,4]benzodiazepin-10(11H)-ylcarbonyl)-3-chloro-phenyl]-2-chloro-3,4-dimethoxybenzamide]: the figures for the inhibition at 1 µM in test [1] and in test [2] were 9% and 85%, respectively.

As for `COc1cc(NC(=O)c2ccccc2C)c(Cl)cc1C(=O)N1Cc2cccn2Cc2ccccc21` [Example 703, N-[4-(5H-pyrrolo[2,1-c][1,4]benzodiazepin-10(11H)-ylcarbonyl)-6-chloro-3-methoxyphenyl]-2-methylbenzamide], the inhibition at 1 µM stood at 35% in test [1] and 87% in test [2].

Regarding `COc1cc(C(=O)N2Cc3cccn3Cc3ccccc32)ccc1NC(=O)c1cc(C)ccc1C` [Example 704, N-[4-(5H-pyrrolo[2,1-c][1,4]benzodiazepin-10(11H)-ylcarbonyl)-2-methoxyphenyl]-2,5-dimethylbenzamide], the inhibition at 1 µM worked out at 100% in test [1] and 92% in test [2].

Consider `O=C(Nc1ccc(C(=O)N2Cc3cccn3Cc3ccccc32)c(Cl)c1)c1ccc(F)cc1C(F)(F)F` [Example 707, N-[4-(5H-pyrrolo[2,1-c][1,4]benzodiazepin-10(11H)-ylcarbonyl)-3-chlorophenyl]-2-(trifluoromethyl)-4-fluorobenzamide], for which the IC50 in test [1] turned out to be 200 nM; in test [2], 6 nM.

As to `CC(C)COC(=O)Nc1ccc(C(=O)N2Cc3cccn3Cc3ccccc32)cc1` [Example 714], the IC50 in test [1] was found to be 23 nM; in test [2] it was 41 nM.

As to `CCCCC(=O)Nc1ccc(C(=O)N2Cc3cccn3Cc3ccccc32)cc1` [Example 715], the IC50 in test [1] is 7.8 nM; in test [2] it was 73 nM.

`COc1cc(C(=O)N2Cc3cccn3Cc3ccccc32)ccc1NC(=O)CC(C)C` [Example 716]: the IC50 in test [1] stood at 2 nM; in test [2] it was 31 nM.
